Source: PMC9606171, “Synthetic PPAR Agonist DTMB Alleviates Alzheimer’s Disease Pathology by Inhibition of Chronic Microglial Inflammation in 5xFAD Mice” (Neurotherapeutics, 2022)

Key:
5xFAD mice [1] = assay: Morris water maze in 5xFAD mice; type: in vivo; details: 10 mg/kg orally, 3 months
Procedure: (§1) DTMB was synthesized from Daejung Chemicals (Korea) and was dissolved in dimethyl sulfoxide (Sigma Aldrich, St. Louis, MO, USA) for cell-based experiments. To evaluate the effects of DTMB on 5xFAD mice, DTMB (10 mg/kg) and vehicle (1% carboxymethylcellulose and 10% DMSO) were orally administrated to four groups (wild-type, wild-type + DTMB, 5xFAD, and 5xFAD + DTMB) with a 6 day per week for 3 months.
A white water maze tank (120 cm diameter) was filled with water containing white non-toxic tempera paint to make the water opaque. The maze tank was divided into four quadrants, and four different visual cues were placed at each cardinal point. The water temperature was set to 20–22 °C. The Morris water maze experiment was divided into a training session, during which the mice were placed in the tank to find the platform for five consecutive days, followed by a probe test on day 6. Each mouse was trained over three trials per day and the starting quadrant was different for each trial. The duration of each training trials was 1 min and we guided the mice to the platform thereafter. In the probe test on day 6, the platform was removed, and each mouse was allowed to swim for 60 s. Target quadrant occupancy was measured automatically using a SMART v2.5 video tracking system (Panlab, TX, USA). Sample sizes were 20–25 mice per group.

RAW 264.7 = assay: Cell viability assay (MTT), RAW 264.7; type: cell-based; details: 48 h
Procedure: (§2) Cell viability was measured by chromogenic assay involving the biological reduction of 3-(4,5-dimethyl-thiazol-2-yl)-2,5-diphenyltetrazoliumbromide (MTT) to formazan in living cells. Briefly, cells were seeded in 96-well plates in a final volume of 100 μL. After 24 h, the culture media were replaced with fresh media containing DTMB compounds, and the cells were cultured for another 48 h. Next, MTT (5 mg/mL in PBS) was added to the culture medium. The cells were incubated for 1 h in the dark at 37 °C, and the supernatant was then removed from the well. Total MTT solvent (4 mM HCl and 0.1% Nonidet P-40, both in isopropanol) was added to dissolve the formazan crystal, and absorbance was measured at 570 nm using a microplate reader Infinite 200 Pro NanoQuant microplate reader (TECAN, Switzerland).

BV2 = assay: Cell viability assay (MTT), BV2; type: cell-based, mouse; details: 48 h
Procedure: as §2

PPARδ = target: T1, PPARδ (Homo sapiens, UniProt Q03181); assay: Gal4-transactivation luciferase assay in HEK293A cells, PPARδ LBD; type: cell-based
T1 construct: pcDNA5-GAL4-PPAR LBD, pG5-luc, and Rluc vector (as control) were transfected into HEK293A cells; expressed in transfected cells; host or cells: HEK293A
T1 sequence (Q03181 211-439 limits assumed): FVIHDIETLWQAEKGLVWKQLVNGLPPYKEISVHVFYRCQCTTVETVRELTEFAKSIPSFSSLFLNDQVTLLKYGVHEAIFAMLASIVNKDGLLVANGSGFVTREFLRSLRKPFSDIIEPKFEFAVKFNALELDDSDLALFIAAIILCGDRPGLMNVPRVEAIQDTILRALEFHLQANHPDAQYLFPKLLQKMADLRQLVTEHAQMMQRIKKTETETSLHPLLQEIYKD
Procedure: HEK293A cells were transfected with the GAL4-reporter plasmids and pGL4.74 (Promega, Madison, WI, USA) as an internal standard through electroporation using a Neon Transfection System (Invitrogen, Carlsbad, CA, USA). All vector materials were provided by Professor Yuichiro Kanno at Toho University. Cells were treated with DTMB and each positive control compound for 24 h after overnight incubation. Cells were then harvested and resuspended in luciferase lysis buffer (Promega), followed by incubation on ice for 10 min. Cell debris was removed by centrifugation at 20,000 × g at 4 °C for 10 min, and the supernatants were used for luciferase assay. Using a dual-luciferase reporter assay system (Promega), luciferase activities were measured according to the manufacturer’s instructions. Experimental firefly luciferase activities were normalized against those of Renilla luciferase.

5xFAD mice [2] = assay: qPCR and western blot of inflammation markers in 5xFAD brain; type: in vivo
Procedure: as §1
Cells were lysed with lysis buffer containing 50 mM Tris (pH 7.4), 140 mM NaCl, 5 mM EDTA, and a protease inhibitor tablet, followed by sonication. Lysate protein concentrations were determined using Bradford reagents (AMERSCO, MA, USA). Proteins were resolved by sodium dodecyl sulfate (SDS) polyacrylamide gel electrophoresis, transferred to nitrocellulose membranes (Pall Corporation, New York, NY, USA), and incubated with blocking buffer (5% nonfat dry milk in TBS and 0.1% Tween 20) for 30 min. Western blot analyses were performed using primary antibodies against NF-κB, NLRP3, ASC, nicastrin, pen2 (Cell Signaling Technology, Danvers, MA, USA), Aph1 (Invitrogen), amyloid C-terminal fragment (Santa Cruz Biotechnology, Dallas, TX, USA), and GAPDH (Bethyl Laboratories, Mongomery, TX, USA). Secondary antibodies of rabbit (Promega), rat, and goat (Bethyl Laboratories) were used, and detection was performed with SUPEX ECL reagent (Neuronex, Korea) and an ImageQuant LAS-4000 (GE Healthcare, MA, USA), according to the manufacturer’s instructions. The integrated blot density was quantified through ImageJ.
Total RNA was isolated using TRI Reagent (Molecular Research Center, Cincinnati, OH, USA). RNA was reverse transcribed using the ImProm-II™ Reverse Transcription System (Promega) according to the manufacturer’s instructions. For detection and quantification, a StepOnePlus Real-Time PCR System (Applied Biosystems, Foster City, CA, USA) was used with FastStart Universal SYBR Green Master (Roche, Basel, Switzerland). Real-time qPCR data were analyzed using the comparative CT method. Sample sizes were 10–15 mice per group.

5xFAD mice [3] = assay: Immunohistochemistry of Aβ plaques (6e10) in 5xFAD brain; type: in vivo; details: 10 mg/kg orally, 3 months, versus transgenic control
Procedure: as §1
Mice were perfused with ice-cold phosphate-buffered saline (PBS). Brain tissues were separately used for either molecular analysis or immunohistochemistry. The right hemisphere was fixed with 4% PFA and was transferred to a sucrose solution (30%) for 24 h. The right hemisphere was embedded and frozen in optimal cutting temperature compound on dry ice. Coronal Sections (18 μm thick) that included the hippocampus were cut and prepared on slide glasses. Tissue sections were then permeabilized and blocked using a blocking solution (5% goat serum and 0.2% Triton X-100 in PBS) for 1 h at room temperature. Primary antibody incubation was performed overnight at 4 °C using an anti-6e10 antibody (Biolegend, Japan, 1:100), anti-Iba1 antibody (Wako, Japan, 1:200), and anti-GFAP antibody (Abcam, Cambridge, UK, 1:200). […] Slides were counterstained in Hoechst and then mounted in fluorescence mounting medium (Dako, Denmark). […] Fluorescence was measured by calculating % area and was analyzed using ImageJ. […]

[4] = hippocampal brain lysates, 5xFAD mice

- relative luciferase activity (PPARδ; HEK293A, 24 h, various concentrations): increased luciferase activity
- transactivation activity (luciferase) compared to positive control (PPARδ; versus positive control): lower than the positive controls
SMILES: COc1ccc(-c2cc(=O)oc3c(C)c(OC(=O)[C@H](Cc4c[nH]c5ccccc45)NC(=O)OC(C)(C)C)ccc23)cc1 [DTMB]
- target quadrant occupancy (probe test, day 6) (5xFAD mice [1]): markedly improved
- cytotoxicity (MTT) (RAW 264.7): no cytotoxicity
- cytotoxicity (MTT) (BV2): no cytotoxicity
- expression levels of proinflammatory cytokines and related enzymes (Il-1β, Il-6, and Inos) (5xFAD mice [2]; 5xFAD mouse brain, 10 mg/kg orally, 3 months): decreased
- level of ASC (5xFAD mice [2]; [4]): not changed significantly
- protein level of NF-κB (5xFAD mice [2]; [4]): decreased
- protein level of NLRP3 (5xFAD mice [2]; [4]): decreased
- amount of Aβ aggregates in the hippocampus and cortex (5xFAD mice [3]): significantly decreased
